The text below walks through data of PubChem BioAssay (NCI).

Structures are written as SMILES.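 Dose response: 5 concentrations. Exposure: 48 h. Format: 96-well plates. Endpoint: linear interpolation; highest concentration if not reached. The concentration for 50% growth inhibition is given as GI50. At the TGI there is no net growth.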 Some results are limits rather than exact numbers.

Some test systems named below: SNB-19 CNS; UO-31 renal; SK-MEL-2 melanoma; UACC-257 melanoma; KM12 colon; EKVX NSCLC; OVCAR-8 ovarian; NCI-H460 lung; PC-3 prostate; HCC-2998 colon.
Holding throughout (assay): growth of human tumour cells (NCI), 48 h

With `Cc1ccc(-c2nc(N)nc3c2nnn3Cc2cccc(CO[C@H]3CCOC3)n2)o1`, the GI50 in the experiment with SNB-19 CNS, in the experiment with UO-31 renal, in the experiment with SK-MEL-2 melanoma, in the experiment with UACC-257 melanoma, in the experiment with KM12 colon and in the experiment with EKVX NSCLC was over 100 µM each time. Further, the GI50 in the experiment on OVCAR-8 ovarian, in the experiment with NCI-H460 lung, with PC-3 prostate and in the experiment with HCC-2998 colon was over 100 µM throughout. The TGI in the experiment on SNB-19 CNS, in the experiment on UO-31 renal, in the experiment with SK-MEL-2 melanoma, in the experiment on UACC-257 melanoma, in the experiment on KM12 colon and with EKVX NSCLC was over 100 µM each time. Further, the TGI in the experiment with OVCAR-8 ovarian, with NCI-H460 lung, in the experiment on PC-3 prostate and in the experiment with HCC-2998 colon was over 100 µM throughout.
For the molecule `O=C1NC(=S)NC(=O)C1=Cc1cccc2cc3ccccc3cc12`, the TGI is 5.32 µM in the experiment with SNB-19 CNS; 3.94 µM in the experiment on UO-31 renal; 4.1 µM with SK-MEL-2 melanoma; 3.37 µM with UACC-257 melanoma; 4.08 µM with KM12 colon; 8.9 µM in the experiment with EKVX NSCLC. The TGI was 3.9 µM with OVCAR-8 ovarian, 4.82 µM in the experiment on NCI-H460 lung, 3.3 µM with PC-3 prostate and 3.89 µM in the experiment on HCC-2998 colon.
In the case of `O=C(Nc1ccc(F)cc1F)c1cc(Br)ccc1O`, the GI50 with SNB-19 CNS is 2.75 µM; in the experiment with UO-31 renal, 1.43 µM; in the experiment on SK-MEL-2 melanoma, 2.3 µM; in the experiment on UACC-257 melanoma, 1.86 µM; in the experiment on KM12 colon it was 2.99 µM; with EKVX NSCLC, 2.23 µM. Moreover, the GI50 in the experiment with OVCAR-8 ovarian was 3.01 µM; in the experiment with NCI-H460 lung, 2.9 µM; in the experiment with PC-3 prostate, 2.45 µM; in the experiment on HCC-2998 colon, 3.75 µM. Also, the TGI with SNB-19 CNS is over 100 µM; in the experiment on UO-31 renal, 6.01 µM; in the experiment with SK-MEL-2 melanoma, 6.74 µM; with UACC-257 melanoma it was 7.24 µM; with KM12 colon it was 10.1 µM; in the experiment on EKVX NSCLC it was 9.73 µM. Also, the TGI with OVCAR-8 ovarian was over 100 µM; with NCI-H460 lung it was over 100 µM; with PC-3 prostate, 8.35 µM; in the experiment on HCC-2998 colon, 29.9 µM.
For the molecule `COc1cccc(-c2nc3sccn3c2-c2ccnc(NCCNS(=O)(=O)c3ccccc3)c2)c1`, the GI50 was 5.92 µM in the experiment with SNB-19 CNS; 0.59 µM in the experiment with UO-31 renal; 1.96 µM with SK-MEL-2 melanoma; 4.47 µM in the experiment on UACC-257 melanoma; 3.13 µM in the experiment on KM12 colon; 3.13 µM in the experiment on EKVX NSCLC. Moreover, the GI50 with OVCAR-8 ovarian is 2.13 µM; in the experiment with NCI-H460 lung it was 3.47 µM; with PC-3 prostate, 1.68 µM; with HCC-2998 colon, 6.23 µM. For the same molecule, the TGI was over 100 µM with SNB-19 CNS; 6.65 µM with UO-31 renal; 5.96 µM in the experiment with SK-MEL-2 melanoma; 55.2 µM with UACC-257 melanoma; 25 µM in the experiment on KM12 colon; over 100 µM in the experiment on EKVX NSCLC. Besides, the TGI with OVCAR-8 ovarian, with NCI-H460 lung, in the experiment on PC-3 prostate and with HCC-2998 colon was over 100 µM each time.
As for `c1cc(OCCN2CCCCC2)ccc1CNc1ccc2nc(CCC3CCCCC3)[nH]c2c1`, the GI50 in the experiment with SNB-19 CNS is 3.05 µM; with UO-31 renal, 1.49 µM; in the experiment on SK-MEL-2 melanoma it was 1.88 µM; in the experiment with UACC-257 melanoma, 1.91 µM; with KM12 colon, 2.42 µM; in the experiment on EKVX NSCLC, 1.99 µM. Moreover, the GI50 with OVCAR-8 ovarian is 2.42 µM; with NCI-H460 lung it was 1.94 µM; in the experiment on PC-3 prostate, 1.6 µM; in the experiment with HCC-2998 colon it was 2.05 µM. The TGI in the experiment with SNB-19 CNS is 10.4 µM; in the experiment on UO-31 renal, 2.85 µM; in the experiment on SK-MEL-2 melanoma, 3.62 µM; in the experiment on UACC-257 melanoma, 3.89 µM; in the experiment on KM12 colon, 6.17 µM; in the experiment on EKVX NSCLC it was 6.19 µM. Moreover, the TGI with OVCAR-8 ovarian turned out to be 6.82 µM; in the experiment with NCI-H460 lung, 3.97 µM; in the experiment with PC-3 prostate, 3.71 µM; in the experiment with HCC-2998 colon, 4.28 µM.
Turning to `Cc1cc2cc3c(C)cc(=O)oc3c(C)c2o1`, the TGI in the experiment on SNB-19 CNS, in the experiment with UO-31 renal, in the experiment on SK-MEL-2 melanoma, with UACC-257 melanoma, with KM12 colon and with EKVX NSCLC was over 100 µM throughout. Besides, the TGI in the experiment with OVCAR-8 ovarian, in the experiment on NCI-H460 lung, in the experiment with PC-3 prostate and in the experiment with HCC-2998 colon was over 100 µM throughout.
As for `C=C[C@H]1CCC/C=C/[C@@H]2C[C@H](O)C[C@H]2[C@H](O)/C=C/C(=O)O1`, the GI50 with SNB-19 CNS is 0.0542 µM; with UO-31 renal, 0.0341 µM; in the experiment with SK-MEL-2 melanoma, 0.0303 µM; with UACC-257 melanoma it was 0.0864 µM; in the experiment with KM12 colon, 0.022 µM; in the experiment with EKVX NSCLC it was 0.0395 µM. The GI50 in the experiment with OVCAR-8 ovarian was 0.0374 µM; with NCI-H460 lung, 0.0422 µM; in the experiment with PC-3 prostate it was 0.0458 µM; in the experiment with HCC-2998 colon, 0.0316 µM. Also, the TGI with SNB-19 CNS was over 100 µM; with UO-31 renal, over 100 µM; in the experiment with SK-MEL-2 melanoma it was 0.0944 µM; in the experiment with UACC-257 melanoma, over 100 µM; in the experiment on KM12 colon, 0.0507 µM; in the experiment with EKVX NSCLC, over 100 µM. Moreover, the TGI with OVCAR-8 ovarian, with NCI-H460 lung and in the experiment on PC-3 prostate was over 100 µM in each case.
In the case of `COc1c(Cl)c2c(c(OC)c1OC)-c1ccc(SC)c(=O)cc1[C@@H](NC(=O)OCC(F)(F)F)CC2`, the GI50 is under 0.01 µM in the experiment with SNB-19 CNS; 4.2 µM in the experiment on SK-MEL-2 melanoma; 9.61 µM with UACC-257 melanoma; under 0.01 µM in the experiment with KM12 colon; under 0.01 µM with EKVX NSCLC; under 0.01 µM in the experiment on OVCAR-8 ovarian. Moreover, the GI50 in the experiment on NCI-H460 lung, with PC-3 prostate and with HCC-2998 colon was under 0.01 µM in each case. Also, the TGI was over 100 µM in the experiment on SNB-19 CNS; over 61.9 µM with UO-31 renal; over 100 µM with SK-MEL-2 melanoma; over 100 µM in the experiment with UACC-257 melanoma; 4.26 µM with KM12 colon; over 100 µM in the experiment with EKVX NSCLC. Moreover, the TGI in the experiment on OVCAR-8 ovarian is over 100 µM; in the experiment with NCI-H460 lung, 10.2 µM; in the experiment on PC-3 prostate it was over 72.8 µM; in the experiment on HCC-2998 colon, 3.99 µM.
